Where two headings read alike, the source gives them in different places.
How the values were obtained:
[1] = tested on: P. falciparum 3D7 parasites; experiment: P. falciparum growth inhibition assay, 1-cycle (72 h treatment), SYBR DNA staining (library screen at 2 μg/mL and dose-response); assay type: cell-based, Plasmodium falciparum; settings: for activity at 2 µg/mL: Plasmodium falciparum, 3D7
[2] = tested on: P. falciparum 3D7 parasites; experiment: P. falciparum growth inhibition assay, 2-cycle (120 h treatment), delayed-death screen and dose-response; assay type: cell-based, Plasmodium falciparum; settings: for activity at 2 µg/mL: Plasmodium falciparum, 3D7
[3] = tested on: T. gondii RH strain (RH-Tub-eYFP) tachyzoites; experiment: microbe, parasite or virus in culture; assay type: cell-based, Toxoplasma gondii; settings: 72 h; for percent parasite growth at 2 µg/mL: Toxoplasma gondii
[4] = P. falciparum 3D7, 72 h, parasite screen at 2 μg/mL, % growth, replicate 1
[5] = P. falciparum 3D7, 72 h, parasite screen at 2 μg/mL, % growth, replicate 2
[6] = P. falciparum 3D7, 120 h, parasite screen at 2 μg/mL, % growth, replicate 1
[7] = P. falciparum 3D7, 120 h, parasite screen at 2 μg/mL, % growth, replicate 2
[8] = T. gondii, parasite screen at 2 μg/mL, % growth, replicate 1
[9] = T. gondii, parasite screen at 2 μg/mL, % growth, replicate 2
[10] = library screen at 2 μg/mL, 72 h, % growth, replicate 1
[11] = library screen at 2 μg/mL, 72 h, % growth, replicate 2
[12] = library screen at 2 μg/mL, 120 h, % growth, replicate 1
[13] = library screen at 2 μg/mL, 120 h, % growth, replicate 2
[14] = library screen at 2 μg/mL, % growth, replicate 1
[15] = library screen at 2 μg/mL, % growth, replicate 2
[16] = P. falciparum, 72 h, screen at 2 μg/mL, replicate 1
[17] = P. falciparum, 72 h, screen at 2 μg/mL, replicate 2
[18] = P. falciparum, 120 h, screen at 2 μg/mL, replicate 1
[19] = P. falciparum, 120 h, screen at 2 μg/mL, replicate 2
[20] = T. gondii, screen at 2 μg/mL, replicate 1
[21] = T. gondii, screen at 2 μg/mL, replicate 2

For `CO[C@@]12[C@H](COC(N)=O)C3=C(C(=O)C(C)=C(N)C3=O)N1C[C@@H]1N[C@@H]12` [BIA-M1183], the Pf_72h_%Growth_Rep1 [1, 4] was 82.66%, the Pf_72h_%Growth_Rep2 [1, 5] was 112.82% and the Pf_120h_%Growth_Rep1 [2, 6] was 92.29%. It also gave a Pf_120h_%Growth_Rep2 [2, 7] of 100.91%, a Tg_72h_%Growth_Rep1 [3, 8] of 127.95% and a Tg_72h_%Growth_Rep2 [3, 9] of 82.68%.

Eprinomectin showed a Pf_72h_%Growth_Rep1 [1, 10] of 61.67%, a Pf_72h_%Growth_Rep2 [1, 11] of 29.66% and a Pf_120h_%Growth_Rep1 [2, 12] of 33.01%. For the same molecule, the Pf_120h_%Growth_Rep2 [2, 13] was 14.57%, the Tg_72h_%Growth_Rep1 [3, 14] was 130.43% and the Tg_72h_%Growth_Rep2 [3, 15] was 107.67%.

In the case of `CC[C@]1(C)C[C@@H](OC(=O)CO)C2(C)[C@H](C)CCC3(CCC(=O)[C@H]32)[C@@H](C)[C@@H]1O` (some centres unmarked) [Dihydropleuromutilin], the “Screen (P. falciparum)” value ([1]; library screen at 2 μg/mL, 3D7, 72 h, DD from the 120 h timepoint) is reported as “I, I”, the Pf_72h_%Growth_Rep1 [1, 10] is reported as 84.27% and the Pf_72h_%Growth_Rep2 [1, 11] is reported as 76.59%. For the same molecule, the Pf_120h_%Growth_Rep1 [2, 12] was 42.82%, the Pf_120h_%Growth_Rep2 [2, 13] was 51.71% and the Tg_72h_%Growth_Rep1 [3, 14] was 80.68%. For the same molecule, the Tg_72h_%Growth_Rep2 [3, 15] was 63.68% and the “Screen (T. gondii)” value ([3]; library screen at 2 μg/mL, RH strain) was “I, I”.

With `O=c1[nH]c2ccccc2c(-c2cccc(O)c2)c1O` [Viridicatol] the Pf_72h_%Growth_Rep1 [1, 16] was 94.32%, the Pf_72h_%Growth_Rep2 [1, 17] was 122.09% and the Pf_120h_%Growth_Rep1 [2, 18] was 110.38%. It also gave a Pf_120h_%Growth_Rep2 [2, 19] of 105.05%, a Tg_72h_%Growth_Rep1 [3, 20] of 112.17% and a Tg_72h_%Growth_Rep2 [3, 21] of 75.26%.

For `CCCC[C@@]1(OC(=O)CCC(=O)O)CC[C@]2(CC[C@H](C)[C@@H](C/C=C(C)/C=C/[C@H](O)[C@@H](C)/C=C/C(=O)O)O2)O[C@H]1/C=C/C(C)=C/C(=O)O` [Reveromycin A], the activity at 2 µg/mL ([1]; P. falciparum, 72 h, parasite screen 2 μg/mL, % growth, replicate 1, read-out: Pf_72h_%Growth_Rep1) was 75.9%, the activity at 2 µg/mL ([1]; P. falciparum, 72 h, parasite screen 2 μg/mL, % growth, replicate 2, read-out: Pf_72h_%Growth_Rep2) was 65.4% and the activity at 2 µg/mL ([2]; P. falciparum, 120 h, parasite screen 2 μg/mL, % growth, replicate 1, read-out: Pf_120h_%Growth_Rep1) was 69.8%. It also gave an activity at 2 µg/mL ([2]; P. falciparum, 120 h, parasite screen 2 μg/mL, % growth, replicate 2, read-out: Pf_120h_%Growth_Rep2) of 88.5%, a percent parasite growth at 2 µg/mL ([3]; T. gondii, parasite screen 2 μg/mL, % growth, replicate 1, read-out: Tg_72h_%Growth_Rep1) of 119% and a percent parasite growth at 2 µg/mL ([3]; T. gondii, parasite screen 2 μg/mL, % growth, replicate 2, read-out: Tg_72h_%Growth_Rep2) of 88.8%.

`CC1CC=CC=CC=CC=CC(OC2OC(C)C(O)C(N)C2O)CC2OC(O)(CC(O)CC3OC3C=CC(=O)O1)CC(O)C2C(=O)O` (centres unmarked) [BIA-P1210] was tested, and the Pf_72h_%Growth_Rep1 [1, 4] was 82.66%, the Pf_72h_%Growth_Rep2 [1, 5] was 61.24% and the Pf_120h_%Growth_Rep1 [2, 6] was 62.24%. For the same molecule, the Pf_120h_%Growth_Rep2 [2, 7] was 79.36%, the Tg_72h_%Growth_Rep1 [3, 8] was 91.98% and the Tg_72h_%Growth_Rep2 [3, 9] was 100.38%.

Work on `COc1c(CC(C)O)c2c3c(CC(C)O)c(OC)c(=O)c4c(O)cc5c(c6c(cc(O)c(c1=O)c62)OCO5)c43` (centres unmarked) [Cercosporin] yielded an activity at 2 µg/mL ([1]; P. falciparum, 72 h, screen at 2 μg/mL, replicate 1, read-out: Pf_72h_%Growth_Rep1) of 9.71%, an activity at 2 µg/mL ([1]; P. falciparum, 72 h, screen at 2 μg/mL, replicate 2, read-out: Pf_72h_%Growth_Rep2) of 9.49% and an activity at 2 µg/mL ([2]; P. falciparum, 120 h, screen at 2 μg/mL, replicate 1, read-out: Pf_120h_%Growth_Rep1) of 7.99%. The activity at 2 µg/mL ([2]; P. falciparum, 120 h, screen at 2 μg/mL, replicate 2, read-out: Pf_120h_%Growth_Rep2) was 4.28%, the percent parasite growth at 2 µg/mL ([3]; T. gondii, screen at 2 μg/mL, replicate 1, read-out: Tg_72h_%Growth_Rep1) was 4.15% and the percent parasite growth at 2 µg/mL ([3]; T. gondii, screen at 2 μg/mL, replicate 2, read-out: Tg_72h_%Growth_Rep2) was 11.5%.

For `CCCC(=O)N[C@H]1CCOC1=O` [Butyryl-L-homoserine lactone], the Pf_72h_%Growth_Rep1 [1, 16] was 70.61%, the Pf_72h_%Growth_Rep2 [1, 17] was 82.94% and the Pf_120h_%Growth_Rep1 [2, 18] was 71.18%. It also gave a Pf_120h_%Growth_Rep2 [2, 19] of 93.77%, a Tg_72h_%Growth_Rep1 [3, 20] of 135.04% and a Tg_72h_%Growth_Rep2 [3, 21] of 102.04%.

In the case of `C[C@@H]1CC[C@H]2C(C)(C)[C@H](O)CC[C@]2(C)[C@@]12Cc1c(O)cc3c(c1O2)CNC3=O` [Stachybotrylactam], the Pf_72h_%Growth_Rep1 ([1]; P. falciparum, 72 h, parasite screen 2 μg/mL, % growth, replicate 1) is reported as 26.98%, the Pf_72h_%Growth_Rep2 ([1]; P. falciparum, 72 h, parasite screen 2 μg/mL, % growth, replicate 2) is reported as 44.84% and the Pf_120h_%Growth_Rep1 ([2]; P. falciparum, 120 h, parasite screen 2 μg/mL, % growth, replicate 1) is reported as 94.74%. The Pf_120h_%Growth_Rep2 ([2]; P. falciparum, 120 h, parasite screen 2 μg/mL, % growth, replicate 2) was 25.01%, the Tg_72h_%Growth_Rep1 ([3]; T. gondii, parasite screen 2 μg/mL, % growth, replicate 1) was 105.88% and the Tg_72h_%Growth_Rep2 ([3]; T. gondii, parasite screen 2 μg/mL, % growth, replicate 2) was 102.71%.
